± gives the standard deviation of the averaged measurements.
System: HL-60
Test: cell viability (% survival relative to DMSO control); higher = less cytotoxic
Details: 72 h
In short: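 HL-60 cells grown in RPMI 1640 with 10% FBS were rescreened against the full library in 384-well plates, in duplicate, at five tenfold concentrations from 1 to 10,000 nM, alongside DMSO or 100 nM of one of three metabolic inhibitors for 72 h at 37 °C, 5% CO2. Reference wells contained DMSO or 10 μM proteasome inhibitor. Viability was read with CellTiter-Glo and normalised to these reference wells, and where reported, area under the curve was taken from four-parameter log-logistic fits in drc and PharmacoGx.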

[1] = 0.001 µM, co-treatment: AZD3965 100 nM
[2] = 0.001 µM, co-treatment: DMSO vehicle
[3] = 0.001 µM, co-treatment: GSK2194069 100 nM
[4] = 0.001 µM, co-treatment: pictilisib 100 nM
[5] = 0.01 µM, co-treatment: AZD3965 100 nM
[6] = 0.01 µM, co-treatment: DMSO vehicle
[7] = 0.01 µM, co-treatment: GSK2194069 100 nM
[8] = 0.01 µM, co-treatment: pictilisib 100 nM
[9] = 0.1 µM, co-treatment: AZD3965 100 nM
[10] = 0.1 µM, co-treatment: DMSO vehicle
[11] = 0.1 µM, co-treatment: GSK2194069 100 nM
[12] = 0.1 µM, co-treatment: pictilisib 100 nM
[13] = 1 µM, co-treatment: AZD3965 100 nM
[14] = 1 µM, co-treatment: DMSO vehicle
[15] = 1 µM, co-treatment: GSK2194069 100 nM
[16] = 1 µM, co-treatment: pictilisib 100 nM
[17] = 10 µM, co-treatment: AZD3965 100 nM
[18] = 10 µM, co-treatment: DMSO vehicle
[19] = 10 µM, co-treatment: GSK2194069 100 nM
[20] = 10 µM, co-treatment: pictilisib 100 nM

SMILES | cell viability [1] | cell viability [2] | cell viability [3] | cell viability [4] | cell viability [5] | cell viability [6] | cell viability [7] | cell viability [8] | cell viability [9] | cell viability [10] | cell viability [11] | cell viability [12] | cell viability [13] | cell viability [14] | cell viability [15] | cell viability [16] | cell viability [17] | cell viability [18] | cell viability [19] | cell viability [20]
CC12CCC(O)CC1CCC1C2CCC2(C)C(C3=CC(=O)OC3)CCC12O (stereo not given) [Digitoxigenin] | 104 ± 7.6% | 99.5 ± 2.3% | 98.16 ± 0.98% | 104 ± 4.3% | 100 ± 5.7% | 105 ± 4.2% | 99.7 ± 2% | 105 ± 4.2% | 102 ± 1.2% | 100 ± 3% | 95 ± 3% | 101.7 ± 0.93% | -0.584 ± 0.77% | -1.01 ± 1.5% | -0.749 ± 1.5% | -1.18 ± 0.99% | -0.476 ± 0.086% | -0.944 ± 0.072% | -1.7 ± 0.21% | -1.09 ± 0.14%
C[C@H]1O[C@@H](O[C@H]2[C@@H](O)C[C@H](O[C@H]3[C@@H](O)C[C@H](O[C@H]4CC[C@@]5(C)[C@H](CC[C@@H]6[C@@H]5C[C@@H](O)[C@]5(C)[C@@H](C7=CC(=O)OC7)CC[C@]65O)C4)O[C@@H]3C)O[C@@H]2C)C[C@H](O)[C@@H]1O [Digoxin] | 75.4 ± 20% | 96.3 ± 4.9% | 84.4 ± 2.7% | 90.5 ± 2.1% | 100.2 ± 0.99% | 102.5 ± 0.88% | 79.1 ± 12% | 89.6 ± 7.5% | 59.9 ± 4.1% | 59.4 ± 21% | 67.8 ± 22% | 51.4 ± 16% | -2.24 ± 0.7% | 0.303 ± 2.7% | -2.57 ± 0.89% | -2.59 ± 1.1% | -0.643 ± 0.45% | -1.62 ± 0.34% | -1.79 ± 0.52% | -1.33 ± 0.87%
O=c1c2ccccc2[se]n1-c1ccccc1 [Ebselen] | 104 ± 4.5% | 98.4 ± 6.1% | 96.3 ± 1.7% | 96.51 ± 0.22% | 101 ± 1.1% | 98.6 ± 6.1% | 102 ± 2.2% | 92.1 ± 3.8% | 102 ± 11% | 103 ± 4.5% | 103 ± 11% | 97.4 ± 12% | 104 ± 5.3% | 99 ± 4.8% | 108 ± 10% | 103 ± 3.2% | 100 ± 1.4% | 95.7 ± 5.4% | 98.4 ± 1.8% | 86.2 ± 7.3%
C#Cc1cnc(O)nc1O [Eniluracil] | 86 ± 17% | 102 ± 2% | 88.7 ± 30% | 85.5 ± 17% | 97.4 ± 1.8% | 101.6 ± 0.32% | 93.8 ± 3.5% | 100.4 ± 0.67% | 103 ± 2.1% | 101.1 ± 0.89% | 100.8 ± 0.49% | 99.32 ± 0.24% | 103 ± 1.8% | 99.9 ± 4.8% | 95.8 ± 9.8% | 102 ± 6.5% | 102.99 ± 0.034% | 101 ± 4.8% | 96.7 ± 6.7% | 103 ± 4.7%
CC(/C=C1\SC(=S)N(CC(=O)O)C1=O)=C\c1ccccc1 [Epalrestat] | 102 ± 1.1% | 100 ± 6.5% | 102 ± 5.9% | 92 ± 4.1% | 64.9 ± 48% | 79.3 ± 39% | 79.1 ± 29% | 75.1 ± 35% | 105.5 ± 0.65% | 102 ± 4% | 109 ± 3.6% | 97.1 ± 7.8% | 101.8 ± 0.5% | 100.82 ± 0.007% | 107.58 ± 0.028% | 95.4 ± 13% | 87.6 ± 2.7% | 94.16 ± 0.38% | 94.2 ± 4.2% | 88.6 ± 2.3%
CCOC(=O)[C@@]1(CCCCCCOc2ccc(Cl)cc2)CO1 [Etomoxir] | 102.9 ± 0.64% | 103 ± 1.2% | 106 ± 3.9% | 100 ± 5.9% | 84.3 ± 34% | 99.54 ± 0.17% | 92 ± 16% | 80.2 ± 27% | 106 ± 3.8% | 102 ± 3.4% | 103.8 ± 0.98% | 113 ± 5% | 87.5 ± 11% | 86.5 ± 21% | 77.9 ± 16% | 102 ± 3.8% | 109 ± 1.6% | 106 ± 1.7% | 100 ± 6.6% | 98 ± 6.5%
Cc1c(-c2ccccc2)oc2c(C(=O)OCCN3CCCCC3)cccc2c1=O.Cl [Flavoxate] | 90.8 ± 13% | 99.7 ± 1.6% | 82.5 ± 21% | 98.6 ± 1% | 101.5 ± 0.24% | 100 ± 1.1% | 101 ± 2.1% | 105 ± 3.5% | 109 ± 9.9% | 104 ± 2.8% | 105 ± 11% | 110 ± 16% | 103 ± 3.7% | 95.5 ± 12% | 98.1 ± 9.8% | 101 ± 9.9% | 97.1 ± 5.2% | 98.8 ± 0.023% | 91.7 ± 8% | 91.7 ± 10%
O=C(O)CCc1ccc(NCc2cccc(Oc3ccccc3)c2)cc1 [GW9508] | 101 ± 1.3% | 95.5 ± 6.2% | 105 ± 9.8% | 99.4 ± 5.3% | 98.73 ± 0.68% | 99.12 ± 0.57% | 98.1 ± 2.8% | 90.3 ± 3.8% | 98 ± 3.5% | 101.3 ± 0.3% | 101 ± 2.4% | 90.9 ± 12% | 105 ± 4.1% | 99.6 ± 0.95% | 108 ± 8.4% | 97.1 ± 6.7% | 103 ± 3.2% | 98.5 ± 1.1% | 107 ± 3.9% | 100 ± 3.3%
c1ccc2c(c1)OCC(=C1NCCN1)O2 [Idazoxan] | 103 ± 1.6% | 99.03 ± 0.46% | 99.9 ± 1.9% | 104 ± 1.9% | 98 ± 3.2% | 101.2 ± 0.3% | 101 ± 1.7% | 102 ± 1.5% | 102 ± 3.3% | 100.8 ± 0.84% | 101.2 ± 0.31% | 93 ± 1.3% | 96 ± 5.5% | 101 ± 1.5% | 98.4 ± 4.8% | 95.1 ± 1.4% | 100 ± 2.2% | 98.4 ± 3.7% | 99.15 ± 0.27% | 98.7 ± 9.1%
C[C@]12O[C@H](C[C@]1(O)CO)n1c3ccccc3c3c4c(c5c6ccccc6n2c5c31)CNC4=O [Lestaurtinib] | 104 ± 3.9% | 98.1 ± 4.1% | 107 ± 9.9% | 102 ± 4.3% | 92.9 ± 13% | 70.9 ± 44% | 86.5 ± 36% | 66.2 ± 28% | 76.5 ± 4.3% | 86.9 ± 3.4% | 83.2 ± 7.7% | 53.5 ± 8.1% | 23.5 ± 3.5% | 26.6 ± 0.46% | 31 ± 4.3% | 20.3 ± 3.2% | -1.19 ± 0.32% | -1.8 ± 0.59% | -1.73 ± 0.11% | -2.07 ± 1.2%
O=C(O)c1nn(Cc2ccc(Cl)cc2Cl)c2ccccc12 [Lonidamine] | 96.3 ± 3.7% | 97.83 ± 0.75% | 96.6 ± 2.2% | 101 ± 1.6% | 90.8 ± 2% | 105 ± 1.4% | 97.05 ± 0.16% | 99.3 ± 12% | 100 ± 3.7% | 100.5 ± 0.34% | 98.9 ± 2.4% | 98.22 ± 0.36% | 101 ± 1.1% | 101 ± 1.2% | 101 ± 7.9% | 103 ± 7.6% | 95.4 ± 9.7% | 98.4 ± 5.4% | 99.8 ± 5.7% | 94.8 ± 8.1%
C1CCc2nnc(C34CC5CC(CC(C5)C3)C4)n2CC1 [MERCK-544] | 103 ± 3% | 98.4 ± 1.3% | 105 ± 1.7% | 97 ± 1.1% | 103.1 ± 0.36% | 103 ± 2.8% | 108 ± 2% | 109 ± 8.3% | 99.41 ± 0.58% | 98.1 ± 2.4% | 99.8 ± 1.6% | 96.63 ± 0.71% | 100.6 ± 0.51% | 99.7 ± 1.4% | 96.27 ± 0.66% | 95.52 ± 0.25% | 108 ± 2% | 101 ± 2.6% | 109 ± 5.7% | 102 ± 10%

From the supplement of paper PMC8671470
